Laboratory results reported in ChEMBL document CHEMBL1136407, “Binding mode of 6ECDCA, a potent bile acid agonist of the farnesoid X receptor (FXR)” (Bioorg Med Chem Lett, 2003).

Biological target: T1, Bile acid receptor (Homo sapiens, UniProt Q96RI1)
T1 sequence (Q96RI1 whole entry): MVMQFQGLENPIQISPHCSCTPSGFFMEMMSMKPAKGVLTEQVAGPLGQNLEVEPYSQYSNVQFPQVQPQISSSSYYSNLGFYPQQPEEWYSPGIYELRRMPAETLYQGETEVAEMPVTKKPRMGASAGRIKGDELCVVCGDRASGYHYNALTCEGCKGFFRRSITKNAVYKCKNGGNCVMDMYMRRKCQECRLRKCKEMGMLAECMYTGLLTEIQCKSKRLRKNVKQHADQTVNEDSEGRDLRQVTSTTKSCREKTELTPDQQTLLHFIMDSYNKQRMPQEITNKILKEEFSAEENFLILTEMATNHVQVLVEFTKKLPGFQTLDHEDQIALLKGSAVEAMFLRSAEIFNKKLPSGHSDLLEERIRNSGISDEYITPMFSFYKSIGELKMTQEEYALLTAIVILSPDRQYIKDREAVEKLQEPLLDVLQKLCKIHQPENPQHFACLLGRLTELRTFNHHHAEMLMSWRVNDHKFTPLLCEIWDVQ
Assay: Binding affinity for Farnesoid X Receptor (FXR)

C[C@H](CCC(=O)O)C1CC[C@H]2[C@@H]3[C@H](O)[C@H](Cc4ccccc4)C4C[C@H](O)CC[C@]4(C)[C@H]3CC[C@]12C (stereo partly specified)
EC50: > 30 µM
